Experimental data taken from US20030055004A1, “GPE analogs and peptidominetics” (priority 2001, published 2003).

System: cortical cultures
Assay: Neuroprotection in cortical cultures after toxin (okadaic acid), MTT survival assay
Format: cell-based, rat
Details: higher concentrations of GPE, FIG. 12, 24 hrs incubation, 8DIV
Experimental: One cortical hemisphere from a postnatal day 1 rat was used and collected into 4 ml of DMEM. Trituration was done with a 5 ml glass pipette and subsequently through an 18 gauge needle. Afterwards, the cell suspension was sieved through a 100 μm cell strainer and washed in 50 ml DMEM (centrifugation for 5 min at 250 g). […] After cells reached confluence, they were washed three times with PBS and adjusted to Neurobasal/B27 and incubated for another 3 days. This supernatant was frozen for transient storage until usage at −80° C. A dam was sacrificed by CO2-treatment in a chamber for up to 4 minutes and was prepared then for cesarean section. After surgery, the embryos were removed from their amniotic sacs, decapitated and the heads put on ice in DMEM/F12 medium for striatum and PBS+0.65% D(+)-glucose for cortex. The two cortical hemispheres were carefully removed by a spatula from the whole brain with the ventral side facing upside into a PBS +0.65% D(+)-glucose containing petri dish. […] Cells were counted and adjusted to 50,000 cells per 60 μl. […] The survival rate was determined by a colorimetric end-point MTT-assay at 595 nm in a multi-well plate reader. For the cerebellar microexplants four windows (field of 0.65 mm^2) with highest cell density were chosen and cells displaying neurite outgrowth were counted.

## NCC(=O)N1CCC[C@H]1C(=O)N[C@@H](CCC(=O)O)C(=O)O [GPE, glycyl-L-prolyl-L-glutamic acid]
  neuroprotection: 64%
